PubChem BioAssay (NCI)
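Protocol summary: plate cells (96-well), add compound at 5 concentrations, incubate 48 h, interpolate endpoints linearly. Definition used: TGI = concentration required for complete inhibition of growth.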

Experiments:
Assay in all cases: NCI anticancer screen, dose series, 48 h
786-0 renal = tested on: 786-0 renal
A549 NSCLC = tested on: A549 NSCLC
ACHN renal = tested on: ACHN renal
BT-549 breast = tested on: BT-549 breast
CAKI-1 renal = tested on: CAKI-1 renal
CCRF-CEM leukemia = tested on: CCRF-CEM leukemia
COLO 205 colon = tested on: COLO 205 colon
DU-145 prostate = tested on: DU-145 prostate
EKVX NSCLC = tested on: EKVX NSCLC
HCC-2998 colon = tested on: HCC-2998 colon
HCT-116 colon = tested on: HCT-116 colon
HCT-15 colon = tested on: HCT-15 colon
HL-60(TB) leukemia = tested on: HL-60(TB) leukemia
HOP-62 NSCLC = tested on: HOP-62 NSCLC
HOP-92 NSCLC = tested on: HOP-92 NSCLC
HS 578T breast = tested on: HS 578T breast
HT29 colon = tested on: HT29 colon
IGROV1 ovarian = tested on: IGROV1 ovarian
KM12 colon = tested on: KM12 colon
LOX IMVI melanoma = tested on: LOX IMVI melanoma
M14 melanoma = tested on: M14 melanoma
MCF7 breast = tested on: MCF7 breast
MDA-MB-231 breast = tested on: MDA-MB-231 breast
MDA-MB-435 = tested on: MDA-MB-435
MDA-N = tested on: MDA-N
MOLT-4 leukemia = tested on: MOLT-4 leukemia
NCI-H226 lung = tested on: NCI-H226 lung
NCI-H23 lung = tested on: NCI-H23 lung
NCI-H460 lung = tested on: NCI-H460 lung
NCI-H522 lung = tested on: NCI-H522 lung
NCI/ADR-RES ovarian = tested on: NCI/ADR-RES ovarian
OVCAR-3 ovarian = tested on: OVCAR-3 ovarian
OVCAR-4 ovarian = tested on: OVCAR-4 ovarian
OVCAR-5 ovarian = tested on: OVCAR-5 ovarian
OVCAR-8 ovarian = tested on: OVCAR-8 ovarian
PC-3 prostate = tested on: PC-3 prostate
RXF 393 renal = tested on: RXF 393 renal
SF-268 CNS = tested on: SF-268 CNS
SF-295 CNS = tested on: SF-295 CNS
SF-539 CNS = tested on: SF-539 CNS
SK-MEL-2 melanoma = tested on: SK-MEL-2 melanoma
SK-MEL-28 melanoma = tested on: SK-MEL-28 melanoma
SK-MEL-5 melanoma = tested on: SK-MEL-5 melanoma
SK-OV-3 ovarian = tested on: SK-OV-3 ovarian
SN12C renal = tested on: SN12C renal
SNB-19 CNS = tested on: SNB-19 CNS
SNB-75 CNS = tested on: SNB-75 CNS
SW-620 colon = tested on: SW-620 colon
TK-10 renal = tested on: TK-10 renal
U251 CNS = tested on: U251 CNS
UACC-257 melanoma = tested on: UACC-257 melanoma
UACC-62 melanoma = tested on: UACC-62 melanoma
UO-31 renal = tested on: UO-31 renal
A498 renal = tested on: A498 renal
K-562 leukemia = tested on: K-562 leukemia
MALME-3M melanoma = tested on: MALME-3M melanoma
RPMI-8226 leukemia = tested on: RPMI-8226 leukemia

## CCOc1ccc2nc(NC(=O)C(=O)C3C(=O)C(CC4C(=O)c5ccccc5C4=O)C(=O)CC3(C)C)sc2c1 (stereo not given)
786-0 renal
  TGI: > 100 µM
A549 NSCLC
  TGI: > 100 µM
ACHN renal
  TGI: > 100 µM
BT-549 breast
  TGI: > 100 µM
CAKI-1 renal
  TGI: > 100 µM
CCRF-CEM leukemia
  TGI: 70.1 µM
COLO 205 colon
  TGI: > 100 µM
DU-145 prostate
  TGI: > 100 µM
EKVX NSCLC
  TGI: > 100 µM
HCC-2998 colon
  TGI: > 100 µM
HCT-116 colon
  TGI: > 100 µM
HCT-15 colon
  TGI: > 100 µM
HL-60(TB) leukemia
  TGI: 64.2 µM
HOP-62 NSCLC
  TGI: > 100 µM
HOP-92 NSCLC
  TGI: > 100 µM
HS 578T breast
  TGI: > 100 µM
HT29 colon
  TGI: > 100 µM
IGROV1 ovarian
  TGI: > 100 µM
KM12 colon
  TGI: > 100 µM
LOX IMVI melanoma
  TGI: > 100 µM
M14 melanoma
  TGI: > 100 µM
MCF7 breast
  TGI: > 100 µM
MDA-MB-231 breast
  TGI: > 100 µM
MDA-MB-435
  TGI: > 100 µM
MDA-N
  TGI: > 100 µM
MOLT-4 leukemia
  TGI: 90.4 µM
NCI-H226 lung
  TGI: > 100 µM
NCI-H23 lung
  TGI: > 100 µM
NCI-H460 lung
  TGI: > 100 µM
NCI-H522 lung
  TGI: > 100 µM
NCI/ADR-RES ovarian
  TGI: > 100 µM
OVCAR-3 ovarian
  TGI: > 100 µM
OVCAR-4 ovarian
  TGI: > 100 µM
OVCAR-5 ovarian
  TGI: > 100 µM
OVCAR-8 ovarian
  TGI: > 100 µM
PC-3 prostate
  TGI: > 100 µM
RXF 393 renal
  TGI: > 100 µM
SF-268 CNS
  TGI: > 100 µM
SF-295 CNS
  TGI: > 100 µM
SF-539 CNS
  TGI: > 100 µM
SK-MEL-2 melanoma
  TGI: > 100 µM
SK-MEL-28 melanoma
  TGI: > 100 µM
SK-MEL-5 melanoma
  TGI: > 100 µM
SK-OV-3 ovarian
  TGI: > 100 µM
SN12C renal
  TGI: > 100 µM
SNB-19 CNS
  TGI: > 100 µM
SNB-75 CNS
  TGI: > 100 µM
SW-620 colon
  TGI: > 100 µM
TK-10 renal
  TGI: > 100 µM
U251 CNS
  TGI: > 100 µM
UACC-257 melanoma
  TGI: > 100 µM
UACC-62 melanoma
  TGI: > 100 µM
UO-31 renal
  TGI: > 100 µM

## CCN(CC)c1c(C(C)(C)C)c(=O)n2ccsc2c1OC(C)=O
786-0 renal
  TGI: 34.1 µM
A498 renal
  TGI: 33.6 µM
A549 NSCLC
  TGI: 28.2 µM
ACHN renal
  TGI: 29.7 µM
BT-549 breast
  TGI: 30.3 µM
CAKI-1 renal
  TGI: 33.1 µM
CCRF-CEM leukemia
  TGI: > 100 µM
COLO 205 colon
  TGI: 31.8 µM
DU-145 prostate
  TGI: 38.7 µM
EKVX NSCLC
  TGI: 29.3 µM
HCC-2998 colon
  TGI: 32.2 µM
HCT-116 colon
  TGI: 26.5 µM
HCT-15 colon
  TGI: 30.7 µM
HL-60(TB) leukemia
  TGI: > 100 µM
HOP-62 NSCLC
  TGI: 26.1 µM
HOP-92 NSCLC
  TGI: 31.2 µM
HS 578T breast
  TGI: 42.8 µM
HT29 colon
  TGI: 28.4 µM
IGROV1 ovarian
  TGI: 31.2 µM
K-562 leukemia
  TGI: > 100 µM
KM12 colon
  TGI: 30.6 µM
LOX IMVI melanoma
  TGI: 31.4 µM
M14 melanoma
  TGI: 31.2 µM
MALME-3M melanoma
  TGI: 25.8 µM
MCF7 breast
  TGI: 28.9 µM
MDA-MB-231 breast
  TGI: 32.5 µM
MDA-MB-435
  TGI: 32.5 µM
MDA-N
  TGI: 34.6 µM
MOLT-4 leukemia
  TGI: > 100 µM
NCI-H226 lung
  TGI: 29.2 µM
NCI-H23 lung
  TGI: 30.7 µM
NCI-H460 lung
  TGI: 31.3 µM
NCI-H522 lung
  TGI: 27.7 µM
NCI/ADR-RES ovarian
  TGI: 28.4 µM
OVCAR-3 ovarian
  TGI: 30.8 µM
OVCAR-4 ovarian
  TGI: 28.9 µM
OVCAR-5 ovarian
  TGI: 29.7 µM
OVCAR-8 ovarian
  TGI: 29.1 µM
PC-3 prostate
  TGI: 23.6 µM
RPMI-8226 leukemia
  TGI: > 100 µM
RXF 393 renal
  TGI: 30.7 µM
SF-268 CNS
  TGI: 30.1 µM
SF-295 CNS
  TGI: 30.7 µM
SF-539 CNS
  TGI: 33.3 µM
SK-MEL-2 melanoma
  TGI: 31 µM
SK-MEL-28 melanoma
  TGI: 30.8 µM
SK-MEL-5 melanoma
  TGI: 32.2 µM
SK-OV-3 ovarian
  TGI: 36 µM
SN12C renal
  TGI: 32.6 µM
SNB-19 CNS
  TGI: 30.4 µM
SNB-75 CNS
  TGI: 31 µM
SW-620 colon
  TGI: 30.6 µM
TK-10 renal
  TGI: 34.7 µM
U251 CNS
  TGI: 30.8 µM
UACC-257 melanoma
  TGI: 30.7 µM
UACC-62 melanoma
  TGI: 34.5 µM
UO-31 renal
  TGI: 31.7 µM
